In PubChem BioAssay AID2742 (NMMLSC, 2010) one finds GFP fluorescence (kMESF), higher = increase data, which are given here for 54 compounds.

Molecules are shown by their SMILES. Values joined by “and” are separate entries in the source; they are usually repeats but may differ in a detail not shown here. Equal values may be shown once. Active and inactive are the calls of the source.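 Rule for the calls: active = fitted half-maximal concentration for changing background-corrected GFP signal at or below a set limit; inactive = the rest.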

The test in a line: TOR pathway reporter MEP2-GFP, concentration series – S. cerevisiae, flow cytometry GFP, MLPCN hits, dose response (AID 2742).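 Note: GFP tag reports level of MEP2 protein as a downstream target of TOR signalling.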 Conditions: S. cerevisiae MEP2-GFP strain, flow cytometry fluorescence, 3 h; at 33 µM (top of the series). Background: Flow cytometry measures light scatter and fluorescence of single cells or particles in a stream.
In the case of `O=C1N(c2ccccc2C(F)(F)F)O[C@@]1(c1ccccc1)C1CCCC1`, the GFP fluorescence (kMESF), higher = increase was 2.17 kMESF (inactive). For the compound `O=C(OCC(=O)N1CCN(C(=O)c2ccco2)CC1)c1cc(-c2ccccc2)nc2ccccc12`, the GFP fluorescence (kMESF), higher = increase is 3.96 kMESF (inactive) and 2.66 kMESF (inactive). For `CCCN1CCc2c(sc(NC(=S)NC(=O)c3ccccc3)c2C#N)C1` the value was 4.04 kMESF (inactive); for `Cc1ccc2[nH]cc(/C=C/c3cc[n+](C)cc3)c2c1`, 4.2 kMESF (inactive).

As to `CCCc1cc(NCc2ccccn2)n2nc(C)c(-c3ccccc3)c2n1`, the GFP fluorescence (kMESF), higher = increase was 2.86 kMESF (inactive). Take `COc1cc(NC(=O)c2ccc(C)cc2)ccc1NC(=O)c1cc2ccccc2o1`: the GFP fluorescence (kMESF), higher = increase was 2.3 kMESF (inactive).

Turning to `C[C@@H]1C[C@@H]([C@H](O)CC2CC(=O)NC(=O)C2)C(=O)[C@@H](C)C1`, the GFP fluorescence (kMESF), higher = increase was 3.27 kMESF (inactive). As for `O=C(/C=C/c1ccccc1[N+](=O)[O-])c1ccccc1Br`, the figure is 62.3 kMESF (inactive). With `O=C(COc1ccccc1)N1CCN(c2ncnc3c2cnn3-c2ccccc2)CC1`, the GFP fluorescence (kMESF), higher = increase was 1.97 kMESF (inactive). Turning to `CC(=O)N(\C=C/C=C/C=C1\Sc2ccccc2C1=O)c1ccccc1`, the GFP fluorescence (kMESF), higher = increase was 8.76 kMESF (inactive).

For the compound `N#C/C(=C\c1cc(Br)ccc1F)C(=O)NC1CC1`, the GFP fluorescence (kMESF), higher = increase was 6.77 kMESF (inactive). Regarding `CCC(=O)Oc1oc(-c2ccccc2)nc1C=Nc1ccccc1OC`, the GFP fluorescence (kMESF), higher = increase was 2.69 kMESF (inactive).

With `Cc1cccnc1Nc1nc(-c2ccccn2)cs1`, the GFP fluorescence (kMESF), higher = increase is 2.08 kMESF (inactive).

Regarding `CCCCCCCCCCCCCCCC[n+]1cccc2ccccc21`, the GFP fluorescence (kMESF), higher = increase was 1.62 kMESF (inactive). As to `O=C(OCC(=O)N1CCN(C(=O)c2ccco2)CC1)c1cc(-c2cccc(Br)c2)nc2ccccc12`, the GFP fluorescence (kMESF), higher = increase was 4.47 kMESF (inactive).

Turning to `O=c1oc2ccccc2c(O)c1[C@H]1c2ccc(O)cc2Oc2c1c(=O)oc1ccccc21`, the GFP fluorescence (kMESF), higher = increase was 4.67 kMESF (inactive). As for `O=S(=O)(c1ccccc1)c1ccc(C(F)(F)F)cn1`, the GFP fluorescence (kMESF), higher = increase is 2.27 kMESF (inactive). For `COc1ccccc1N=Nc1ccc(O)c2ncccc12` the value was 5.16 kMESF (inactive); for `COc1ccc(C(=O)NC(=S)NNC(=O)c2cnccn2)cc1OC`, 2.46 kMESF (inactive). As for `O=C1ON=C(c2ccccc2)/C1=C/c1ccc(-c2ccccc2[N+](=O)[O-])o1`, the figure is 5.5 kMESF (inactive). Turning to `O=C(c1ccccc1)c1ccccc1N1C(=O)C=CC1=O`, the GFP fluorescence (kMESF), higher = increase was 4.22 kMESF (inactive). In the case of `O=C(O)c1ccc2c(c1)C(=O)/C(=C/c1ccccc1)C2=O`, the GFP fluorescence (kMESF), higher = increase is 2.47 kMESF (inactive). Turning to `CC[C@]1(c2ccccc2C)ON(c2ccccc2C(F)(F)F)C1=O`, the GFP fluorescence (kMESF), higher = increase was 1.97 kMESF (inactive). On to `CC1=NNC(=O)/C1=C\c1cn(-c2ccccc2)nc1-c1ccccc1`, for which the GFP fluorescence (kMESF), higher = increase is 3.11 kMESF (inactive). As for `COC(=O)c1cc(N2C(=O)C3C(C2=O)C2(C)C=CC3(C)O2)ccc1Cl` (centres undefined), the GFP fluorescence (kMESF), higher = increase is 4.8 kMESF (inactive). As for `CCc1cc(C(=O)Nc2nc(-c3ccccn3)cs2)sc1C`, the figure is 6.18 kMESF (inactive). As for `CC(=O)CSc1ncnc2c1cnn2-c1ccccc1`, the figure is 2.5 kMESF (inactive). In the case of `O=C(/C=C/c1ccccn1)c1ccc(Br)cc1O`, the GFP fluorescence (kMESF), higher = increase was 2.38 kMESF (inactive).

As to `CCc1sc(C(=O)Nc2nc(-c3ccccn3)cs2)cc1C`, the GFP fluorescence (kMESF), higher = increase is 5.26 kMESF (inactive). Regarding `COc1ccc(N2C(=O)C(Cl)=C(NCc3ccccc3)C2=O)cc1`, the GFP fluorescence (kMESF), higher = increase is 3.91 kMESF (inactive). `CC(=O)Nc1ncnc2c1c(-c1ccc(Cl)cc1)nn2C(C)(C)C`: the GFP fluorescence (kMESF), higher = increase is 2.08 kMESF (inactive). Turning to `O=[N+]([O-])c1cnc(Sc2ccncn2)s1`, the GFP fluorescence (kMESF), higher = increase was 3.07 kMESF (inactive). With `O=C(/C=C/c1ccccn1)c1cc(Br)ccc1O`, the GFP fluorescence (kMESF), higher = increase was 4.38 kMESF (inactive). Regarding `CC(=O)n1cc(C(C[N+](=O)[O-])SCCN)c2ccccc21` (centres undefined), the GFP fluorescence (kMESF), higher = increase is 3.64 kMESF (inactive). Take `O=[N+]([O-])c1ccc(Sc2nc3ccccc3o2)c([N+](=O)[O-])c1`: the GFP fluorescence (kMESF), higher = increase was 2.65 kMESF (inactive). On to `Cc1cc(C(=O)Nc2nc(-c3ccccn3)cs2)ccc1[N+](=O)[O-]`, for which the GFP fluorescence (kMESF), higher = increase is 4.48 kMESF (inactive).

As for `COc1ccccc1N1C(=O)c2cccc3c(C(=O)O)ccc(c23)C1=O`, the GFP fluorescence (kMESF), higher = increase was 3.03 kMESF (inactive).

As for `CC(Oc1cccc(Cl)c1)C(=O)Nc1nc(-c2ccccn2)cs1` (centres undefined), the GFP fluorescence (kMESF), higher = increase was 5.7 kMESF (inactive). As for `Cc1ccc(NC(=O)c2ccc(Cl)c(N3C(=O)C=CC3=O)c2)cc1`, the figure is 5.91 kMESF (inactive).

For `COC(=O)CCS(=O)(=O)c1nc(-c2ccccc2)cc(C(F)(F)F)n1`, the GFP fluorescence (kMESF), higher = increase was 6.95 kMESF (inactive).

Turning to `O=c1oc(/C=C/c2ccc([N+](=O)[O-])s2)nc2ccccc12`, the GFP fluorescence (kMESF), higher = increase was 5.31 kMESF (inactive). Turning to `COc1cccc(/C=N/Nc2ncc(C(F)(F)F)cc2Cl)c1O`, the GFP fluorescence (kMESF), higher = increase was 3.26 kMESF (inactive).

Consider `CC(C)(C)C(=O)NC(=S)NNC(=O)c1sc2ccccc2c1Cl`, for which the GFP fluorescence (kMESF), higher = increase was 4.68 kMESF (inactive). As for `O=S(=O)(/N=C(/Sc1ccccc1)c1ccccc1)c1ccccc1`, the figure is 4.43 kMESF (inactive).

For `O=C1C=C(Nc2ccc(Cl)cc2)C(=O)N1c1ccc(Cl)cc1`, the GFP fluorescence (kMESF), higher = increase is 1.97 kMESF (inactive). As for `CC(C)(C)n1nc(-c2ccc(F)cc2)c2c(N)ncnc21`, the GFP fluorescence (kMESF), higher = increase was 4.89 kMESF (inactive). Take `Cc1cc2ccccn2c1C(=O)c1ccc([N+](=O)[O-])o1`: the GFP fluorescence (kMESF), higher = increase is -12.4 kMESF (inactive). For `CN1CCN(C(=O)c2cc(COc3c(F)cccc3F)on2)CC1c1ccccc1` (centres undefined) the value was 5.87 kMESF (inactive); for `Cc1ccccc1[C@]1(C)ON(c2ccccc2C(F)(F)F)C1=O`, 2.17 kMESF (inactive); for `N#Cc1c2ccc([N+](=O)[O-])cc2[n+]([O-])n1-c1ccccc1`, 1.82 kMESF (inactive).

Consider `COc1cc(NC(=O)c2cccc(C)c2)ccc1NC(=O)c1cc2ccccc2o1`, for which the GFP fluorescence (kMESF), higher = increase was 2.2 kMESF (inactive). In the case of `CCOC(=O)c1cc(-c2ccc(/C=C3/C(=O)NC(=O)C(C#N)=C3C)o2)ccc1Cl`, the GFP fluorescence (kMESF), higher = increase is 6.22 kMESF (inactive). For the compound `COc1ccc(N2C(=O)C(Cl)=C(Oc3cccc(OC)c3)C2=O)cc1`, the GFP fluorescence (kMESF), higher = increase was 4.18 kMESF (inactive). Take `CN1C(=O)/C(=N\OC(=O)c2cccc3ccccc23)c2ccccc21`: the GFP fluorescence (kMESF), higher = increase is 3.68 kMESF (inactive).
